Where “and” joins values, the source holds several entries; their conditions need not be identical. Equal values may be shown once.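 How tested: cells in 96-well plates exposed to compound for 48 hours at five concentrations. Abbreviation: GI50, concentration required for 50% inhibition of growth. At the TGI there is no net growth.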 Where a SMILES comes first, the peptide text is derived from it. [ ]: non-standard residue; d: D form. The star is where a group is joined. AllylGly = C=CC[CH](N)C(=O)O; Boc = CC(C)(C)OC(=O)*; OtBu = CC(C)(C)O*
Assays:
Assay in all cases: inhibition of tumour cell growth, NCI panel, 48 h
ACHN renal = system: ACHN renal
EKVX NSCLC = system: EKVX NSCLC
HCC-2998 colon = system: HCC-2998 colon
KM12 colon = system: KM12 colon
MDA-MB-435 = system: MDA-MB-435
SK-MEL-5 melanoma = system: SK-MEL-5 melanoma
SK-OV-3 ovarian = system: SK-OV-3 ovarian
SNB-19 CNS = system: SNB-19 CNS
SNB-75 CNS = system: SNB-75 CNS
UO-31 renal = system: UO-31 renal

| SMILES | TGI (ACHN renal) | TGI (EKVX NSCLC) | TGI (HCC-2998 colon) [µM] | TGI (KM12 colon) [µM] | TGI (MDA-MB-435) [µM] | TGI (SK-MEL-5 melanoma) | TGI (SK-OV-3 ovarian) [µM] | TGI (SNB-19 CNS) [µM] | TGI (SNB-75 CNS) [µM] | TGI (UO-31 renal) [µM] | GI50 (SNB-75 CNS) | GI50 (ACHN renal) [µM] | GI50 (EKVX NSCLC) [µM] | GI50 (HCC-2998 colon) [µM] | GI50 (KM12 colon) [µM] | GI50 (MDA-MB-435) [µM] | GI50 (SK-MEL-5 melanoma) [µM] | GI50 (SK-OV-3 ovarian) [µM] | GI50 (SNB-19 CNS) [µM] | GI50 (UO-31 renal) [µM] |
| --- | --- | --- | --- | --- | --- | --- | --- | --- | --- | --- | --- | --- | --- | --- | --- | --- | --- | --- | --- | --- |
| Cc1cc(C)nc(NS(=O)(=O)c2ccc(Nc3c4ccccc4nc4c(C(=O)NCCCN(CCO)CCO)cccc34)cc2)n1 | > 100 µM | > 100 µM | 33.6 | 30.7 | 40.6 | 34.8 µM | > 100 | > 100 | 23.1 | > 100 | – | – | – | – | – | – | – | – | – | – |
| Cc1[nH]c(=O)nc(N/N=C/c2ccc(Cl)cc2)c1C(=O)NC(C)(CO)CO | > 100 µM | > 100 µM | > 100 | > 100 | > 100 | > 100 µM | > 100 | > 100 | > 100 | > 100 | – | – | – | – | – | – | – | – | – | – |
| COc1ccc2nc3ccc(OC)cc3c(S(=O)(=O)Cc3ccc([N+](=O)[O-])cc3)c2c1 | > 100 µM | > 100 µM | > 100 | > 100 | > 100 | – | > 100 | > 100 | > 100 | > 100 | – | – | – | – | – | – | – | – | – | – |
| CC(=O)C(=[N+]=[N-])C(=O)OC(C)(C)C#N | > 10 µM | > 10 µM | > 10 | > 10 | > 10 | > 10 µM | > 10 | > 10 | 8.12 | > 10 | – | – | – | – | – | – | – | – | – | – |
| CN(NC(=O)CCCl)C1=NCCN1 | > 100 µM | > 100 µM | > 100 | > 100 | > 100 | > 100 µM | > 100 | > 100 | > 100 | > 100 | – | – | – | – | – | – | – | – | – | – |
| C[C@H](Nc1c(O)c2c(c(O)c1Cl)C(=O)C=CC2=O)C(=O)Nc1ccc([N+](=O)[O-])cc1 | 9.31 µM | > 10 µM | 8.05 | 3.66 | 3.04 | 3.14 µM | > 10 | 9.59 | > 10 | – | – | – | – | – | – | – | – | – | – | – |
| Cc1cccc2c1Oc1cc(Cl)ccc1C2NC(=O)CCN1CCN(CCO)CC1 (stereo not given) | – | 70.5 µM | 43.7 | 11.5 | 27.5 | 27 µM | > 100 | 72 | 25.1 | 26.8 | – | – | – | – | – | – | – | – | – | – |
| O=C1C(CN2CCCCC2)CCCC1CN1CCCCC1 (stereo not given) | 34 µM and 39.3 µM | 38 µM and 39.8 µM | > 100 | > 100 | 30.9 | > 31.6 µM and 47.6 µM | > 100 | > 100 | > 100 | > 68.4 | > 100 µM and 46.2 µM | – | – | – | – | – | – | – | – | – |
| CCCCC(=O)Nc1ccc2cc(C(=O)OC)c(ON3C(=O)c4ccccc4C3=O)nc2n1 | > 100 µM | > 100 µM | > 100 | > 100 | > 100 | > 100 µM | > 100 | > 100 | 88.2 | 44.4 | – | – | – | – | – | – | – | – | – | – |
| CN1CN(c2ccccc2)C2(CCN(CCCSc3ccccc3NC(=O)/C=C/c3ccccc3)CC2)C1=O | 9.81 µM | 44.5 µM | 20.6 | 17.9 | 6.91 | 9.18 µM | > 42.3 | 25.1 | 22.8 | 14.1 | – | – | – | – | – | – | – | – | – | – |
| CCCc1c(OC)c(=O)c2c(OC)cc(OC)c3c4c(OC)cc(OC)c5c(=O)c(OC)c(CCC)c(c1c23)c54 | 29.3 µM | 28 µM | 38.7 | 34.1 | 29.6 | 22.6 µM | 30.4 | 34.6 | 36 | 28.9 | – | – | – | – | – | – | – | – | – | – |
| S=C(N/N=C(/c1ccccc1)c1ccccn1)Nc1ccccc1Cl | 9.46 µM | 9.92 µM | 8.11 | 16.2 | 8.77 | 2.63 µM | 13 | 15.8 | 19.4 | 5.96 | – | – | – | – | – | – | – | – | – | – |
| C=CCC(NC(=O)C(CC(=O)OC(C)(C)C)NC(=O)OC(C)(C)C)C(=O)OC (stereo not given) (Boc-Asp(OtBu)-[AllylGly]-OMe; configuration not given here) | > 100 µM | > 100 µM | 61.3 | > 100 | > 91.3 | > 57.3 µM | > 100 | > 100 | > 100 | > 100 | – | – | – | – | – | – | – | – | – | – |
| Cc1c(CCOC=O)c(=O)[nH]c2nncn12 | > 100 µM | > 100 µM | > 100 | > 100 | > 100 | > 100 µM | > 100 | > 100 | > 100 | > 100 | – | – | – | – | – | – | – | – | – | – |
| CC(C)(C)c1ccc(-c2nc3ccc([N+](=O)[O-])cc3c(=O)o2)cc1 | 90.5 µM | > 100 µM | 33 | 69.9 | 77 | 74.9 µM | 95.7 | > 100 | 66.1 | 93.8 | – | – | – | – | – | – | – | – | – | – |
| O=C1C(/C=C/c2ccc(Cl)cc2)=NNC2N1N=C1NC(=O)C3(NN12)c1ccccc1-c1ccccc13 (stereo not given) | > 100 µM | > 100 µM | > 100 | – | > 100 | > 100 µM | > 100 | > 100 | > 100 | > 100 | – | – | – | – | – | – | – | – | – | – |
| C[C@]12CC[C@@H]3c4cc(OCC(F)(F)F)c(O)cc4C(=O)C[C@H]3[C@@H]1CC[C@@H]2O | > 100 µM | > 100 µM | 38.7 | > 64.4 | > 25.4 | > 82.8 µM | 47.5 | > 79.5 | 65.7 | > 100 | – | – | – | – | – | – | – | – | – | – |
| COCC1CCCN1c1ccc(/C=C(/C#N)C(N)=S)cc1 (stereo not given) | > 100 µM | > 100 µM | > 100 | > 100 | > 100 | > 100 µM | > 100 | > 100 | > 100 | > 100 | 90.7 µM | > 100 | > 100 | > 100 | 39.5 | 15 | 89.1 | > 100 | > 100 | > 100 |
| O=P(Oc1ccccc1)(Oc1ccccc1)Oc1c[nH]c2ccccc12 | – | 0.907 µM | 17.9 | > 100 | 28.3 | 24.8 µM | 18.3 | 27.7 | 23.9 | 19.7 | – | – | – | – | – | – | – | – | – | – |
| CC1OC(OC2C(O[C@H]3CC[C@@]4(C)[C@@H](CC[C@@H]5[C@@H]4CC[C@]4(C)[C@@H]6[C@H](C[C@@H]54)O[C@]4(CC[C@@H](C)CO4)[C@H]6C)C3)OC(CO)C(OC3OC(CO)C(O)C(OC4OCC(O)C(O)C4O)C3OC3OCC(O)C(O)C3O)C2O)C(O)C(O)C1O (stereo not given in full) | 2.2 µM | 2.95 µM | 3.01 | 1.92 | 2.74 | – | 3.44 | 2.33 | 2.86 | 2.44 | – | – | – | – | – | – | – | – | – | – |
